For one series, the target named is T1, CYP2C19 (Homo sapiens, UniProt P33261).
T1 construct: from tissue; host or cells: human liver microsomes
Kind of series: Inhibition of human liver microsomal CYP2C19. The note with it: human liver microsomes, 10 μM test substance; read-out: Relative inhibition rate (%) CYP2C19. It is filed as in vitro ADME. How it is done: (§1) Experimental purpose: The inhibitory effects of the test compounds on the major metabolizing enzymes CYP1A2, CYP2C19, CYP2D6 and CYP3A4 in microsomes were evaluated using the human liver microsomal system. Experimental method: The test substance was incubated with a suspension of human liver microsomes containing cytochrome P450 enzymes CYP1A2, CYP2C19, CYP2D6 and CYP3A4 at a concentration of 10 μM in the final incubation system. The known substrates were metabolized by the corresponding single enzymes to generate specific metabolites, and the metabolites were determined by UPLC-MS/MS method. The relative inhibition rate (%) was calculated by the percentage reduction of metabolite production by the test compound and solvent DMSO in the same time period. N is the concentration value of the probe substrate metabolite and it is assumed that the […] with or without inhibitor at 0 min is 0. N+inh is the metabolite concentration in the group with inhibitor, and Nveh is the metabolite concentration in the group without inhibitor. The results of the inhibition test of the compounds of the present invention on human liver microsomal CYP enzymes are shown in Table C.
(In general: Microsomes from liver hold many membrane-bound enzymes, among them those of drug oxidation.)

In a further series the target is T2, hTLR8 (Homo sapiens, UniProt Q9NR97).
T2 construct: expressed in transfected cells; host or cells: HEK-Blue hTLR8 cells
T2 sequence (Q9NR97 27-1041): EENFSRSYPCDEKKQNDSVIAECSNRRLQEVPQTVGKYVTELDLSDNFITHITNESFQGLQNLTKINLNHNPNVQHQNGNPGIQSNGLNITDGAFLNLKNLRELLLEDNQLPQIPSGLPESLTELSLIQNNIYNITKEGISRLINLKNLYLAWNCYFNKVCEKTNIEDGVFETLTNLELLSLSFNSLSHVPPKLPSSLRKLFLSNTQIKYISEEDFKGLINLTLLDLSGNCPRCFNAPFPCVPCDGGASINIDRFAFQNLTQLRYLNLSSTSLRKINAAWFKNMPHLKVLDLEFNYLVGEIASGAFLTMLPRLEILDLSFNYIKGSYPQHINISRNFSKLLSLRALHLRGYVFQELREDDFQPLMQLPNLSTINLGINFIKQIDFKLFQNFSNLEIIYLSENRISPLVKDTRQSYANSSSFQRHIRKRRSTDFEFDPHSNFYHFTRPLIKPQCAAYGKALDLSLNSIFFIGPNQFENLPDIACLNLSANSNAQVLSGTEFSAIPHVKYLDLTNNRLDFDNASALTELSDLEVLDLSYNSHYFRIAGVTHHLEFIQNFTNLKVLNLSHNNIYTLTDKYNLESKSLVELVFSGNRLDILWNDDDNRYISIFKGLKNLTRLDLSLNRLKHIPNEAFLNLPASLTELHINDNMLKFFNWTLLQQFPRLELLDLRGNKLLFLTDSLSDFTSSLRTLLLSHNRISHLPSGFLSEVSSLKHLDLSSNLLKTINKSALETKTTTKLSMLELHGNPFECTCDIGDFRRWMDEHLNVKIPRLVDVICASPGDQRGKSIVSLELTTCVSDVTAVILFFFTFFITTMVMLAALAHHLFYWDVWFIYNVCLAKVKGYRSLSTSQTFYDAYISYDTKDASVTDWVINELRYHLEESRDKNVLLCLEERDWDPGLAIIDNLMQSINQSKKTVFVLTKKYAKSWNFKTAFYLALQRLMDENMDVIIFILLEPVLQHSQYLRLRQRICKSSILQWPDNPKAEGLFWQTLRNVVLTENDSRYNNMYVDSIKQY
Kind of series: Agonistic activity on human TLR8 in HEK-Blue hTLR8 cells (QUANTI-Blue). It is filed as cell-based. The note with it: 24 h incubation, OD650, read-out: hTLR 8 EC50.

Another series addresses T3, CYP1A2 (Homo sapiens, UniProt P05177).
T3 construct: from tissue; host or cells: human liver microsomes
T3 sequence (P05177 1-516): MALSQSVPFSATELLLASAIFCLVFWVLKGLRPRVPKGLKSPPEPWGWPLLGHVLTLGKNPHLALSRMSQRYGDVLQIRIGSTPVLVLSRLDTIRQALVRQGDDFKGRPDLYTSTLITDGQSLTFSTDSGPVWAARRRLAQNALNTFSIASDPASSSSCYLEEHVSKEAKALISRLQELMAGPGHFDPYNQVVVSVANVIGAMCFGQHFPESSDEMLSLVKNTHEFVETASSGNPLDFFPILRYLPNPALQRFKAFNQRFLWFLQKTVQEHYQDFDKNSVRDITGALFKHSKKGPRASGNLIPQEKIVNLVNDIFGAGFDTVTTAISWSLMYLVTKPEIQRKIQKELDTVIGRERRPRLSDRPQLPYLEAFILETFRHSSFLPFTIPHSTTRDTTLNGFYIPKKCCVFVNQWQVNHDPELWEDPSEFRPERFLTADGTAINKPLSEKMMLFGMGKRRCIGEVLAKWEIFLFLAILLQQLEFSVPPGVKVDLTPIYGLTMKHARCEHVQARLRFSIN
The experiment in a line: Inhibition of human liver microsomal CYP1A2. Type of series: in vitro ADME. The following applies: human liver microsomes, 10 μM test substance; read-out: Relative inhibition rate (%) CYP1A2. How it is done:
as §1

A further series deals with T4, CYP3A4 (Homo sapiens, UniProt P08684).
T4 construct: from tissue; host or cells: human liver microsomes
The experiment in a line: Inhibition of human liver microsomal CYP3A4. The following applies: human liver microsomes, 10 μM test substance. Type of series: in vitro ADME. On the procedure: as §1

Another series deals with T5, hTLR7 (Homo sapiens, UniProt Q9NYK1).
T5 construct: expressed in transfected cells; host or cells: HEK-Blue hTLR7 cells
T5 sequence (Q9NYK1 27-1049): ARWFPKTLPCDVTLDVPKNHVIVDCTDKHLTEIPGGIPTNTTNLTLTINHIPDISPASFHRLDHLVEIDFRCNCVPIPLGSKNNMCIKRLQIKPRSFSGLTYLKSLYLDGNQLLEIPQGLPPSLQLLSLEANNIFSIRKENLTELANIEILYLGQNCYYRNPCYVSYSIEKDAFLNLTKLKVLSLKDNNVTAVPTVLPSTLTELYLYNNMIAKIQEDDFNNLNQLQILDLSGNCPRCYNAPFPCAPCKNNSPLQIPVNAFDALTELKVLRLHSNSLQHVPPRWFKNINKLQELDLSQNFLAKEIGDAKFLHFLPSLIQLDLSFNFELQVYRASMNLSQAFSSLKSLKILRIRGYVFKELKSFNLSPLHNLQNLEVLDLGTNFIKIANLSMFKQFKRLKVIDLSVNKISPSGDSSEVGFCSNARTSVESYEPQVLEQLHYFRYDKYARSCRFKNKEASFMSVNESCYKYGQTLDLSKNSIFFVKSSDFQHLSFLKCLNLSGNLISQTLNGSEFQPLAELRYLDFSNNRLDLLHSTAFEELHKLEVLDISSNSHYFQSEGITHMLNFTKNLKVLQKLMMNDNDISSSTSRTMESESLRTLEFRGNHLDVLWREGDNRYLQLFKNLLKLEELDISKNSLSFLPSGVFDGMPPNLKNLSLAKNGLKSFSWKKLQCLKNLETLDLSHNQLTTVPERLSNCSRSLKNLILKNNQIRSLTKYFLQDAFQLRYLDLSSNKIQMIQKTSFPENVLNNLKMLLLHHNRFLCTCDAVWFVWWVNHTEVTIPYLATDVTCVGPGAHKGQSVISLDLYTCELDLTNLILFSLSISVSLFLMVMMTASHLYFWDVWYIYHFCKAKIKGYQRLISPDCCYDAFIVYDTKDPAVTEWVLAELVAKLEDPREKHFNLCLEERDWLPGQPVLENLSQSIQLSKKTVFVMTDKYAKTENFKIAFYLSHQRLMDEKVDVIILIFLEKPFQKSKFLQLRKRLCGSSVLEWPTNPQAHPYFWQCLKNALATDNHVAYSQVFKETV
The experiment in a line: Agonistic activity on human TLR7 in HEK-Blue hTLR7 cells (QUANTI-Blue). It is filed as cell-based. The following applies: 24 h incubation, OD650, read-out: hTLR 7 EC50.

The nature of series [1]: Cell toxicity (Celltiter-Glo) in HEK-Blue hTLR8 cells. The note with it: human. (In general: In ATP-based viability assays light output follows the ATP content of the culture.)
Description: Purpose: HEK-Blue™ hTLR7 and HEK-Blue™ hTLR8 cells were used to detect the agonist and cytotoxic activities of compounds against hTLR7 and hTLR8.
The experimental steps were as shown below: • 1) Preparation of compound: The compound was prepared into a 20 mM stock solution with DMSO, and then the stock solution was diluted 3-fold in a gradient and added to a 96-well plate, for a total of 10 concentrations, with duplicate wells for each concentration. For negative control wells, 0.5 μL DMSO was added to each well. The final DMSO concentration was 0.5%. • 2) HEK-Blue™ hTLR7 or HEK-Blue™ hTLR8 cells were suspended in culture medium and then seeded into 96-well plates containing compounds at a cell count of 50,000 per well. The compounds and cells were incubated for 24 h at 37° C., 5% Co2. • 3) QUANTI-Blue was used for the detection solution: to a mixture of 1 mL of QB reagent and 1 mL of QB buffer was added 98 mL of sterile water, the mixture was mixed and dissolved, and then placed at room temperature for 10 min. • 4) Activity test of the compound: 20 μL of the culture supernatant in step 2) was added to each well of a 96-well plate containing 180 μL of QUANTI-Blue detection solution. After incubation at 37° C. for 1 h, the absorbance at 650 nm (OD650) was detected using a multifunctional microplate reader Flextation III. • 5) Detection of cell activity: The chemiluminescent signal (RLU) was detected using the multifunctional microplate reader Flextation III according to the instructions of Celltiter-Glo. • 6) Data analysis
Detection of cell activity: The calculation formula for cell activity % is as follows.
The cell activity % values were analyzed using GraphPad Prism software, and the compound dose-effect curves were fitted to calculate the CC50 values of the compounds.
Cell activity %=RLU compound/RLU DMSO Control*100%
For a further series, the target named is T6, CYP2D6 (Homo sapiens, UniProt P10635).
T6 construct: from tissue; host or cells: human liver microsomes
The experiment in a line: Inhibition of human liver microsomal CYP2D6. It is filed as in vitro ADME. The following applies: human liver microsomes, 10 μM test substance; read-out: Relative inhibition rate (%) CYP2D6. How it is done:
as §1

[2] abbreviates: probe Midazolam, substrate Midazolam, read-out: Relative inhibition rate (%) CYP3A4 (Midazolam).
[3] abbreviates: probe Testosterone, substrate Testosterone, read-out: Relative inhibition rate (%) CYP3A4 (Testosterone).

Read-outs that look alike come from different tables or passages of the source.

Drawing on patent US20250163051A1, “PYRIMIDO AROMATIC RING COMPOUND AND USE THEREOF IN DRUG” (SUNSHINE LAKE PHARMA CO., LTD., priority 2022, published 2025), this text covers inhibition, EC50 and CC50 for seven molecules.

Usually inhibition stands for the relative decrease from the control value, in per cent. For orientation: EC50 means the concentration needed to bring the measured effect to its halfway point. By CC50 is commonly meant the concentration giving 50% cytotoxicity. Higher therefore signals lower toxicity to the cells.

T6 sequence (P10635 whole entry): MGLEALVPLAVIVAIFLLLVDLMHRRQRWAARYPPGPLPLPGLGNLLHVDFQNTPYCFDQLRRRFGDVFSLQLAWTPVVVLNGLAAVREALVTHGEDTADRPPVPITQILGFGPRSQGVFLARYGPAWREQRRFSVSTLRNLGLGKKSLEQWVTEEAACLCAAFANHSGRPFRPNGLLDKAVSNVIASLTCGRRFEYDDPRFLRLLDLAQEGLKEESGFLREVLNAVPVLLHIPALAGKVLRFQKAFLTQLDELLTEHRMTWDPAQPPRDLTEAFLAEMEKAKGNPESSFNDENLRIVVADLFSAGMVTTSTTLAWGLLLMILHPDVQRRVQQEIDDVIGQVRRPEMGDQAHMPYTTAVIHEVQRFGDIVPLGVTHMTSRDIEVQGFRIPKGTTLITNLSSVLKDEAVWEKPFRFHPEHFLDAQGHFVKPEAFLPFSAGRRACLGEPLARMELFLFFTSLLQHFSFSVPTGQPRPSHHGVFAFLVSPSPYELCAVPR
T1 sequence (P33261 whole entry): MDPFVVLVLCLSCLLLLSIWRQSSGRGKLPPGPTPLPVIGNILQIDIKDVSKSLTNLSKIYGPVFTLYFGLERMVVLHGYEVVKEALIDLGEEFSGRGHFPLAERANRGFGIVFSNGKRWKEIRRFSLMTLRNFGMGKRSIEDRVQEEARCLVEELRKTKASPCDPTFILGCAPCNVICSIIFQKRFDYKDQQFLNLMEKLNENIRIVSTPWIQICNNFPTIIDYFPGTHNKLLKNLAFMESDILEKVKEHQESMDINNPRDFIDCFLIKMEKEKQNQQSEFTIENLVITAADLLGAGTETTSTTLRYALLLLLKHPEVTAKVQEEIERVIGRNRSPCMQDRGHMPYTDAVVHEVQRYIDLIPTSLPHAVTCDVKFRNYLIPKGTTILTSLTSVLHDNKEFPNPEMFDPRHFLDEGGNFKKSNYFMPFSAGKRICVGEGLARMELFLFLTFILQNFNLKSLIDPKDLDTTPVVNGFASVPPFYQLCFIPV
T4 sequence (P08684 whole entry): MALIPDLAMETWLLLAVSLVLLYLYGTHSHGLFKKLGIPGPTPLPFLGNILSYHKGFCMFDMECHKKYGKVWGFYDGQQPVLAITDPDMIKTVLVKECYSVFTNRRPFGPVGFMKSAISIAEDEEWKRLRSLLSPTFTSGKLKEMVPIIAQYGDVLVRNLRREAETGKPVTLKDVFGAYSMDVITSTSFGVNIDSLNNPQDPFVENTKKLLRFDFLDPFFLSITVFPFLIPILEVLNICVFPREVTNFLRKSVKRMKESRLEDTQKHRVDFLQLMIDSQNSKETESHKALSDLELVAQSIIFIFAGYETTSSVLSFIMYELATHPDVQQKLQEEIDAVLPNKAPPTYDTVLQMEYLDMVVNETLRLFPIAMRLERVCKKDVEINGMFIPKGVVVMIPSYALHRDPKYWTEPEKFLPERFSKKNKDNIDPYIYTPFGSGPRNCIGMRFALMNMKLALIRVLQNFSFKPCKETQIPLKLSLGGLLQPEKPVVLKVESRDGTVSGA

In the case of `CCCC[C@](C)(CO)Nc1nc(N)nc2cc(-c3cc(=O)[nH]cc3CN(C)CCOC)ccc12` [Example 54, (R)-4-(2-Amino-4-((1-hydroxy-2-methylhexan-2-yl)amino)quinazolin-7-yl)-5-(((2-methoxyethyl)(methyl)amino)methyl)pyridin-2(1H)-one], the inhibition at 10 µM amounted to 0.8% on CYP2C19; 7.9% on CYP1A2; 22.5% on CYP3A4 (setting [2]); 8.9% at CYP3A4 (setting [3]); 12.5% at CYP2D6. For the same molecule, the EC50 was 0.106 µM on hTLR8 and greater than 100 µM on hTLR7. In addition, the CC50 at 24 h in series [1] is greater than 100 µM.
Consider `CCCC[C@](C)(CO)Nc1nc(N)nc2cc(-c3cc(=O)n(C)cc3CN(C)CCOC)ccc12` [Example 55, (R)-4-(2-Amino-4-((1-hydroxy-2-methylhexan-2-yl)amino)quinazolin-7-yl)-5-(((2-methoxyethyl)(methyl)amino)methyl)-1-methylpyridin-2(1H)-one], for which the inhibition at 10 µM worked out at 17% on CYP2C19; 9.1% at CYP1A2; 38.6% at CYP3A4 (setting [2]); 17.1% on CYP3A4 (setting [3]); 19.1% at CYP2D6. Further, the EC50 was 0.039 µM at hTLR8 and greater than 100 µM at hTLR7. For the same molecule, in series [1], the CC50 at 24 h is greater than 100 µM.
With `CCCCN(C)Cc1cn(C)c(=O)cc1-c1ccc2c(N[C@@](C)(CO)CCCC)nc(N)nc2c1` [Example 56, (R)-4-(2-Amino-4-((1-hydroxy-2-methylhexan-2-yl)amino)quinazolin-7-yl)-5-((butyl(methyl)amino)methyl)-1-methylpyridin-2(1H)-one], the inhibition at 10 µM on CYP2C19 was found to be 10.4%; at CYP1A2, 10.7%; on CYP3A4 (setting [2]), 33.6%; on CYP3A4 (setting [3]), 15.6%; on CYP2D6 it was 31.7%. Besides, the EC50 on hTLR8 came out at 0.025 µM; at hTLR7 it was 11.1 µM.
As for `CCCC[C@](C)(CO)Nc1nc(N)nc2cc(-c3cc(=O)n(C)cc3CN(C)CCO)ccc12` [Example 64, (R)-4-(2-Amino-4-((1-hydroxy-2-methylhexan-2-yl)amino)quinazolin-7-yl)-5-(((2-hydroxyethyl)(methyl)amino)methyl)-1-methylpyridin-2(1H)-one], the inhibition at 10 µM at CYP2C19 amounted to 2.4%; on CYP1A2 it was 8.9%; at CYP3A4 (setting [2]), 17.6%; at CYP3A4 (setting [3]), 8.8%; at CYP2D6, 13.8%. Moreover, the results for the EC50 at hTLR8 and at hTLR7 were 0.077 µM and greater than 100 µM, respectively. In series [1], this molecule yielded a CC50 at 24 h greater than 100 µM.
On to `CCCCN(C)Cc1c[nH]c(=O)cc1-c1ccc2c(N[C@@](C)(CO)CCCC)nc(N)nc2c1` [Example 36, (R)-4-(2-Amino-4-((1-hydroxy-2-methylhexan-2-yl)amino)quinazolin-7-yl)-5-((butyl(methyl)amino)methyl)pyridin-2(1H)-one], for which the inhibition at 10 µM turned out to be 7% on CYP2C19; 9% at CYP1A2; 25.9% at CYP3A4 (setting [2]); 7.5% at CYP3A4 (setting [3]); 20.1% on CYP2D6. In addition, the EC50 was 0.066 µM at hTLR8 and greater than 100 µM on hTLR7. The CC50 at 24 h in series [1] was greater than 100 µM.
With `CCCC[C@](C)(CO)Nc1nc(N)nc2cc(-c3cc(=O)[nH]cc3CNCCOC)ccc12` [Example 57, (R)-4-(2-Amino-4-((1-hydroxy-2-methylhexan-2-yl)amino)quinazolin-7-yl)-5-(((2-methoxyethyl)amino)methyl)pyridin-2(1H)-one], the EC50 was 1.86 µM on hTLR8 and greater than 100 µM on hTLR7. The same molecule had a half-maximal cytotoxic concentration (CC50) at 24 h in series [1] greater than 100 µM.
In the case of `C=CCCN(C)C(=O)c1c[nH]c(=O)cc1-c1cnc2c(N[C@@](C)(CO)CCCC)nc(N)nc2c1` [Example 38, (R)-4-(2-Amino-4-((1-hydroxy-2-methylhexan-2-yl)amino)pyrido[3,2-d]pyrimidin-7-yl)-N-(but-3-en-1-yl)-N-methyl-6-oxo-1,6-dihydropyridine-3-carboxamide], the EC50 on hTLR8 is 2.99 µM; at hTLR7, greater than 100 µM. For the same molecule, the CC50 at 24 h in series [1] was greater than 100 µM.
